Data taken from US9399031B2, “Combined use of amides of mono- and dicarboxylic acids and silymarin in the treatment of renal diseases” (Epitech Group S.r.l., priority 2013, dated 2016).

Columns and labels:
[1] = tested on: dismetabolic neuropathies; conditions: animal model of diabetes by streptozotocin; cited from earlier work
[2] = tested on: renal ischemia/reperfusion; test: Experimental renal ischemia/reperfusion model; type: in vivo; conditions: mice, bilateral renal ischemia 30 minutes, 6 hours post-reperfusion; compared to the carrier alone; FIGS. 1 and 2
Protocol: After being anesthesized with sodium pentobarbital (50 mg/kg i.p.), mice were placed on a heated mat to keep their body temperature at 37° C. during surgery. After a laparatomy, mice were subjected to bilateral renal ischemia during 30 minutes, during which renal arteries and veins were occluded by microaneurysm clamps. The ischemia time selected was based on the time capable of maximizing the reproducibility of the renal function unbalance, while minimizing animal death. After removing renal clamps, kidneys were observed during additional 5 minutes to confirm complete reperfusion, and subsequently 1 ml saline was injected into the abdomen and incision was sutured. […] All plasma samples were analyzed for assessing the biochemical parameters within 24 hours post-withdrawal. Plasma concentrations of urea and creatinine were measured as indicators of the impaired glomerular function. […] Absorbance change rate was spectrometrically measured at 650 nm. […] Determination of Malondialdehyde Levels Malondialdehyde (MDA) levels in kidneys were determined as an indicator of lipid peroxidation. […] Supernatant absorbance was spectrometrically measured at 532 nm. MDA levels were expressed as μM/100 mg wet tissue. […] Total scoring for each kidney was calculated by the sum of all the 100 scores, with a maximum score of 300. […]

For `CCCCCCCCCCCCCCCC(=O)NCCO` [PEA, Palmitoylethanolamide], the allodynia [1] is given as “suppresses allodynia”, the blood insulin levels [1] is given as “increase in blood insulin levels” and the body weight [1] is given as “partial body weight recovery”. For the same compound, the “functional and tissue parameters for kidneys (plasma AST, γGT, creatinine, urea; MDA levels, MPO renal activity, histologic assessment)” value [2] was “neither Silymarin alone nor PEA alone, when used at the same doses as in the combination, showed an improvement effect”.
